For one assay, the system named is RPMI 8402. The assay is described as follows: SANGER: Inhibition of human RPMI-8402 cell growth in a cell viability assay. The class given is functional, cell-based.
Another assay deals with KMS-12-PE. The assay is described as follows: cells. Format: functional, cell-based, Homo sapiens.
The test system of the next assay is NCI-H345. Put plainly: cells. Format: functional, cell-based, Homo sapiens.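 Note: growth inhibition of NCI-H345 cells measured with a cell viability assay.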
For the next assay, the system named is EHEB. The assay is described as follows: cells. The class given is functional, cell-based. Particulars: Homo sapiens.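 Note: growth inhibition of human EHEB cells, read out with a cell viability assay.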
For a further assay, the system named is D-336MG. Put plainly: cells. The class given is functional, cell-based, Homo sapiens.
The test system of the next assay is ST486. The assay is described as follows: SANGER: Inhibition of human ST486 cell growth in a cell viability assay. Format: functional, cell-based.
Another assay has as its system TALL-1. The assay is described as follows: cells. Format: functional, cell-based, Homo sapiens.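 Note: growth inhibition of cultured human TALL-1 cells, read out by a cell viability assay.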
For a further assay, the system named is TE-15. Put plainly: cells. Format: functional, cell-based, Homo sapiens.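 Note: cell viability readout of growth inhibition in TE-15 cells.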
The subject of the next assay is SK-MM-2. The assay is described as follows: cells. Format: functional, cell-based, Homo sapiens.
The next assay deals with MC-CAR. The assay is described as follows: cells. Format: functional, cell-based, Homo sapiens.
The next assay deals with NCI-H2171. Put plainly: cells. Format: functional, cell-based, Homo sapiens.
A further assay concerns CP66-MEL. Put plainly: cells. Particulars: Homo sapiens. Format: functional, cell-based.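 Note: growth inhibition of CP66-MEL cells determined in a cell viability assay.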
In a further assay the test system is OPM-2. The assay is described as follows: cells. Format: functional, cell-based, Homo sapiens.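 Note: growth of OPM-2 cells measured with a viability assay, IC50 for suppression of proliferation.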
The next assay deals with NCI-H1522. Put plainly: cells. The class given is functional, cell-based, Homo sapiens.
The subject of another assay is TE-441-T. Put plainly: cells. Format: functional, cell-based, Homo sapiens.
The next assay deals with BL-70. Put plainly: SANGER: Inhibition of human BL-70 cell growth in a cell viability assay. Format: functional, cell-based.

Each structure is given as a SMILES string. Where “and” joins values, the source holds several entries; their conditions need not be identical. Identical values can stand only once. Where a SMILES comes first, the peptide text is derived from it. The star is where a group is joined. Cbz = O=C(OCc1ccccc1)*

Description for CP66-MEL: SANGER: Inhibition of human CP66-MEL cell growth in a cell viability assay.
Description for D-336MG: SANGER: Inhibition of human D-336MG cell growth in a cell viability assay.
Description for EHEB: SANGER: Inhibition of human EHEB cell growth in a cell viability assay.
Description for KMS-12-PE: SANGER: Inhibition of human KMS-12-PE cell growth in a cell viability assay.
Description for MC-CAR: SANGER: Inhibition of human MC-CAR cell growth in a cell viability assay.
Description for NCI-H1522: SANGER: Inhibition of human NCI-H1522 cell growth in a cell viability assay.
Description for NCI-H2171: SANGER: Inhibition of human NCI-H2171 cell growth in a cell viability assay.
Description for NCI-H345: SANGER: Inhibition of human NCI-H345 cell growth in a cell viability assay.
Description for OPM-2: SANGER: Inhibition of human OPM-2 cell growth in a cell viability assay.
Description for SK-MM-2: SANGER: Inhibition of human SK-MM-2 cell growth in a cell viability assay.
Description for TALL-1: SANGER: Inhibition of human TALL-1 cell growth in a cell viability assay.
Description for TE-15: SANGER: Inhibition of human TE-15 cell growth in a cell viability assay.
Description for TE-441-T: SANGER: Inhibition of human TE-441-T cell growth in a cell viability assay.

On to `COc1ccc(N(C(=O)Oc2c(C)cccc2C)c2ccnc(Nc3ccc(N4CCN(C)CC4)cc3)n2)c(OC)c1`, for which the IC50 – broadly, the concentration that gives 50% inhibition – in the assay on RPMI 8402 (Homo sapiens, RPMI 8402) is over 5120 nM; in the assay on KMS-12-PE (Homo sapiens, KMS-12-PE), over 5120 nM; in the assay on NCI-H345 (Homo sapiens, NCI-H345) it was over 5120 nM; in the assay with EHEB it was over 5120 nM; in the assay with D-336MG (Homo sapiens, D-336MG) it was 46.8 nM; in the assay with ST486 (Homo sapiens, ST486), over 5120 nM. For the same molecule, the IC50 was over 5120 nM with TALL-1 (Homo sapiens, TALL-1); 243 nM with TE-15 (Homo sapiens, TE-15); over 5120 nM with SK-MM-2 (Homo sapiens, SK-MM-2); over 5120 nM in the assay on MC-CAR (Homo sapiens, MC-CAR); over 5120 nM with NCI-H2171 (Homo sapiens, NCI-H2171); over 5120 nM in the assay on CP66-MEL. Moreover, the IC50 in the assay on OPM-2 (Homo sapiens, OPM-2) is over 5120 nM; in the assay on NCI-H1522 (Homo sapiens, NCI-H1522), over 5120 nM; in the assay on TE-441-T (Homo sapiens, TE-441-T), over 5120 nM; in the assay on BL-70 (Homo sapiens, BL-70) it was under 20 nM.

As to `C[C@@H](Oc1cc(-c2cnn(C3CCNCC3)c2)cnc1N)c1c(Cl)ccc(F)c1Cl` [CRIZOTINIB], the IC50 in the assay on RPMI 8402 (Homo sapiens, RPMI 8402) was over 2000 nM; in the assay with KMS-12-PE (Homo sapiens, KMS-12-PE), over 2000 nM; with NCI-H345 (Homo sapiens, NCI-H345), over 2000 nM; in the assay with EHEB, over 2000 nM; in the assay on D-336MG (Homo sapiens, D-336MG), over 2000 nM; with ST486 (Homo sapiens, ST486), over 2000 nM. For the same molecule, the IC50 in the assay with TALL-1 (Homo sapiens, TALL-1) is over 2000 nM; with TE-15 (Homo sapiens, TE-15), over 2000 nM; with SK-MM-2 (Homo sapiens, SK-MM-2), over 2000 nM; in the assay with MC-CAR (Homo sapiens, MC-CAR), over 2000 nM; in the assay with NCI-H2171 (Homo sapiens, NCI-H2171), over 2000 nM; with CP66-MEL, over 2000 nM. The IC50 with OPM-2 (Homo sapiens, OPM-2) is over 2000 nM; in the assay on NCI-H1522 (Homo sapiens, NCI-H1522) it was over 2000 nM; in the assay on TE-441-T (Homo sapiens, TE-441-T) it was over 2000 nM; in the assay with BL-70 (Homo sapiens, BL-70), over 2000 nM.

As for `NC(=O)c1cccc(-c2cc(Nc3ccc(OC(F)(F)F)cc3)ncn2)c1`, the IC50 was over 1280 nM with RPMI 8402 (Homo sapiens, RPMI 8402); over 1280 nM in the assay on KMS-12-PE (Homo sapiens, KMS-12-PE); over 1280 nM in the assay on NCI-H345 (Homo sapiens, NCI-H345); over 1280 nM in the assay on EHEB; over 1280 nM in the assay on D-336MG (Homo sapiens, D-336MG); over 1280 nM in the assay on ST486 (Homo sapiens, ST486). Further, the IC50 with TALL-1 (Homo sapiens, TALL-1) is over 1280 nM; in the assay with TE-15 (Homo sapiens, TE-15) it was over 1280 nM; in the assay on SK-MM-2 (Homo sapiens, SK-MM-2) it was over 1280 nM; with MC-CAR (Homo sapiens, MC-CAR), over 1280 nM; in the assay with NCI-H2171 (Homo sapiens, NCI-H2171), over 1280 nM; in the assay with CP66-MEL, over 1280 nM. For the same molecule, the IC50 is over 1280 nM in the assay with OPM-2 (Homo sapiens, OPM-2); over 1280 nM in the assay with NCI-H1522 (Homo sapiens, NCI-H1522); over 1280 nM in the assay on TE-441-T (Homo sapiens, TE-441-T); over 1280 nM with BL-70 (Homo sapiens, BL-70).

On to `Cc1ccc(NC(=O)c2ccc(CN3CCN(C)CC3)cc2)cc1Nc1nccc(-c2cccnc2)n1` [IMATINIB], for which the IC50 with RPMI 8402 (Homo sapiens, RPMI 8402) was over 2000 nM; in the assay on KMS-12-PE (Homo sapiens, KMS-12-PE) it was over 2000 nM; in the assay on NCI-H345 (Homo sapiens, NCI-H345) it was over 2000 nM; in the assay with EHEB it was over 2000 nM; in the assay on D-336MG (Homo sapiens, D-336MG), over 2000 nM; in the assay on ST486 (Homo sapiens, ST486), 685 nM. In addition, the IC50 in the assay with TALL-1 (Homo sapiens, TALL-1) is over 2000 nM; in the assay on TE-15 (Homo sapiens, TE-15), over 2000 nM; with SK-MM-2 (Homo sapiens, SK-MM-2), over 2000 nM; in the assay on MC-CAR (Homo sapiens, MC-CAR) it was over 2000 nM; with NCI-H2171 (Homo sapiens, NCI-H2171), over 2000 nM; in the assay on CP66-MEL it was over 2000 nM. Moreover, the IC50 is over 2000 nM in the assay with OPM-2 (Homo sapiens, OPM-2); over 2000 nM in the assay with NCI-H1522 (Homo sapiens, NCI-H1522); over 2000 nM in the assay on TE-441-T (Homo sapiens, TE-441-T); over 2000 nM in the assay on BL-70 (Homo sapiens, BL-70).

Consider `CC(C)C[C@@H](C=O)NC(=O)[C@H](CC(C)C)NC(=O)[C@H](CC(C)C)NC(=O)OCc1ccccc1` [MG-132] (Cbz-Leu-Leu-Leu-aldehyde), for which the IC50 is over 1000 nM with RPMI 8402 (rpmi-8402); over 1000 nM with KMS-12-PE (kms-12-pe); over 1000 nM in the assay with NCI-H345 (nci-h345); over 1000 nM with EHEB; over 1000 nM in the assay with D-336MG (d-336mg); over 1000 nM in the assay with ST486 (Homo sapiens, ST486). Moreover, the IC50 in the assay with ST486 (st486), with TALL-1 (tall-1), with TE-15 (te-15), in the assay with SK-MM-2 (sk-mm-2), in the assay with MC-CAR (mc-car) and in the assay with NCI-H2171 (nci-h2171) was over 1000 nM each time. Moreover, the IC50 with OPM-2 (opm-2) is 105 nM and 758 nM; in the assay with NCI-H1522 (nci-h1522) it was over 1000 nM; in the assay with TE-441-T (te-441-t), over 1000 nM; in the assay with BL-70 (bl-70), 694 nM and > 1000 nM.
